Source: US20110213028A1, “FATTY ACID MYCOPHENOLATE DERIVATIVES AND THEIR USES” (CATABASIS PHARMACEUTICALS, INC., priority 2010, published 2011)

How the values were obtained:
[1] = test system: IL-1β; assay: Effect on IL-1β expression in LPS-stimulated RAW 264.7 macrophages; format: cell-based; conditions: RAW 264.7 mouse macrophages, dosed at 50 μM and 100 μM, 100 ng/ml LPS stimulation, FIG. 1
Experimental: RAW264.7 macrophages were seeded at a density of 100,000 cells/well in a 96-well plate in DMEM supplemented with 10% FBS and Penn/strep. 16 hours later, medium was aspirated and replaced with 90 μL/well of serum-free DMEM. Test compounds were brought up in 100% EtOH to a concentration of 100 mM and then diluted 1:100 in 100% FBS for a stock solution consisting of 1mM compound and 1% EtOH. These stock solutions were then diluted 1:10 in FBS supplemented with 1% EtOH to generate a 100 μM of the test compounds. 10 μL was then added to the RAW246.7 cells to generate final concentrations consisting of 10 μM of the fatty acid mycophenolate conjugate, along with vehicle only control. The compounds were allowed to pre-incubate for 2 hours before stimulation of 100 ng/ml LPS (10 μL of 1 μg/ml LPS was added to each well). Following 3 hours of LPS stimulation, cells were washed once in 1 ×PBS, aspirated dry, and flash frozen in liquid nitrogen. RNA was then isolated and converted to cDNA using the Cells to cDNA kit (Ambion) according to the manufacturer's protocol. IL-1β transcript levels were then measured using Taqman primer/probe assay sets (Applied Biosystems), normalized to GAPDH using the deltaCt method, and the data expressed relative to vehicle only control. FIG. 1 summarizes the effects of compounds I-1, I-2, I-5, and I-10 on the expression of IL-1β in RAW 264.7 mouse macrophages. All four compounds were dosed at 50 μM and 100 μM.

[2] = test system: SLE-prone MRLlpr/lpr mice; conditions: 100 mg/kg in drinking water; cited from earlier work
[3] = test system: (NZB X NZW)F1 mouse model of systemic lupus erythematosus; conditions: 200 mg/kg/day over a 6 week period; cited from earlier work
[4] = test system: systemic lupus erythematosus patients; conditions: mean dose of 1,328 mg/a day over a 1 or 2 year period; cited from earlier work

Row | Structure (SMILES) | IL-1β expression (transcript level relative to vehicle only control) [1] | survival, C3 deposition in glomeruli, albuminuria and haematuria [2] | autoimmunity and mortality [3] | disease flares [4]
1 | CC/C=C\C/C=C\C/C=C\C/C=C\C/C=C\CCCC(=O)NCCNC(=O)CC/C(C)=C/Cc1c(O)c2c(c(C)c1OC)COC2=O [Compound I-10, (5Z,8Z,11Z,14Z,17Z)-N-(2-((E)-6-(4-hydroxy-6-methoxy-7-methyl-3-oxo-1,3-dihydroisobenzofuran-5-yl)-4-methylhex-4-enamido)ethyl)icosa-5,8,11,14,17-pentaenamide] | statistically significant decrease in IL-1β expression |  |  | 
2 | CC/C=C\C/C=C\C/C=C\C/C=C\C/C=C\C/C=C\CCC(=O)NCCOCCNC(=O)CC/C(C)=C/Cc1c(O)c2c(c(C)c1OC)COC2=O [Compound I-2, (4Z,7Z,10Z,13Z,16Z,19Z)-N-(2-(2((E)-6-(4-hydroxy-6-methoxy-7-methyl-3-oxo-1,3-dihydroisobenzofuran-5-yl)-4-methylhex-4-enamido)ethoxy)ethyl)docosa-4,7,10,13,16,19-hexaenamide] | statistically significant decrease in IL-1β expression |  |  | 
3 | COc1c(C)c2c(c(O)c1C/C=C(\C)CCC(=O)OCCN1CCOCC1)C(=O)OC2 [mycophenolate mofetil] |  | able to prolong survival, reduce the extent of deposition of C3 in glomeruli and reduce the occurrence of albuminuria and haematuria | able to suppress autoimmunity and mortality | effective in reducing disease flares
4 | CC/C=C\C/C=C\C/C=C\C/C=C\C/C=C\C/C=C\CCC(=O)NCCSSCCNC(=O)CC/C(C)=C/Cc1c(O)c2c(c(C)c1OC)COC2=O [Compound I-5, (4Z,7Z,10Z,13Z,16Z,19Z)-N-(2-(2-(2-((E)-6-(4-hydroxy-6-methoxy-7-methyl-3-oxo-1,3-dihydroisobenzofuran-5-yl)-4-methylhex-4-enamido)ethyl)disulfanyl)ethyl)docosa-4,7,10,13,16,19-hexaenamide] | statistically significant decrease in IL-1β expression |  |  | 
5 | CC/C=C\C/C=C\C/C=C\C/C=C\C/C=C\C/C=C\CCC(=O)NCCNC(=O)CC/C(C)=C/Cc1c(O)c2c(c(C)c1OC)COC2=O [Compound I-1, (4Z,7Z,10Z,13Z,16Z,19Z)-N-(2((E)-6-(4-hydroxy-6-methoxy-7-methyl-3-oxo-1,3-dihydroisobenzofuran-5-yl)-4-methylhex-4-enamido)ethyl)docosa-4,7,10,13,16,19-hexaenamide] | statistically significant decrease in IL-1β expression |  |  | 
